# According to publication PMC10541198, “Specific quinone reductase 2 inhibitors reduce metabolic burden and reverse Alzheimer’s disease phenotype in mice” (The Journal of Clinical Investigation, 2023):
# Where “and” joins values, the source holds several entries; their conditions need not be identical. Identical values can stand only once.
# System: 4-HNE
# Assay: IHC of 4-HNE in 5xFAD brain sections
# Type: in vivo, mouse
# Set-up: 4-HNE upper quartile / 4-HNE lower quartile: unit not given here
# Settings: for 4-HNE distribution (F test) / 4-HNE lower quartile / 4-HNE normalized volume (individual mice) / 4-HNE upper quartile: CA1, 5xFAD 1 month; for Figure 9A, IHC signal / Sup. Fig. 6-1A, IHC signal: individual animals; for 4-HNE vs vehicle: cortex, 5xFAD 1 month
# From the text: Following the behavioral experiments, we assessed brain pathologies associated with AD present in the 5xFAD mice ([37]). Therefore, 5 days following the last behavioral experiment, and 1 month after the start of YB-537 consumption, mice were sacrificed, and coronal brain sections were used for IHC. Since the CA1 region of the hippocampus is affected during AD pathogenesis ([37]), and this brain region is involved in the behavioral paradigms used here, we acquired images of CA1. This was done with an Olympus IX83 confocal microscope using the same settings, antibodies, and exposures in all mice. Images were analyzed using Imaris (Bitplane; see methods). For each mouse, 3 coronal sections were used per antibody. In each section, the same region of CA1 was acquired, using the same image frame size and resolution, at all possible depths of the section — using a Z-stack of the whole section — to allow measurement of the fluorescent antibody marker volume, which was normalized to the brain volume from which it was taken. First, we measured oxidative stress, as indicated by 4-HNE ([38]) (Abcam, ab48506).
# Perfused and fixed brain slices were blocked with 10% normal donkey serum (DNS) and 0.2% triton (Sigma-Aldrich) in PBS. Antibodies, including 4-HNE (AbCam, ab48506), Iba1 (AbCam, ab5076), AT-8 (Thermo, MN1020), Amyloid β (AbCam, ab201060), diluted in PBS with 10% DNS, were incubated at 4°C overnight. Secondary antibodies including donkey-anti-goat Alexa Fluor 568 (AbCam, ab175704), donkey-anti-mouse Cy 5 (Jackson Immuno Research, 715-175-151), and donkey-anti-rabbit DyLight 488 (AbCam, ab98488) all diluted 1:500 in PBS with 1% BSA, were applied to the slices at RT for 2 hours the next day. Slices were mounted onto glass slides using DAPI containing Vectashield (H-1200). Images were taken using a confocal microscope (Olympus IX83). Three slices were used per mouse per antibody. Tiling images of the dorsal CA1 and cortex (Bregma: –1.58mm to –2.30mm) were taken using ×20 objective, acquiring a Z-stack of the whole section. Analysis of the images was done blind by an experimenter unaware of the experimental conditions or details, using Imaris (Bitplane) software. A surface reconstruction module was used to extract the data as volumes of the used markers (4-HNE, phospho-tau, amyloid β, GFAP, and Iba1). Marker volume and intensity were normalized to the corresponding brain volume. The normalized value was averaged for each triplicate and presented here. […]
# Brains were then briefly removed and placed in chilled, 4% PFA for 48 h, f oll owe d by immersion in 30% sucrose in 0.1 M PBS for a furt her 48 h. Bra i ns wer e t h e n stored at -80°C, until t he y were sliced into 40µm coronal sections usinga Lei ca CM 1950cryostat. Sli ces were then washed x3 in PBS and bl oc ke d for 1 h at RT using 10% normal donkey serum (DNS) and 0.2% triton (Sigma-Aldrich) in PBS. Antibodies, including 4- HNE (1:500, AbCam, ab48506), Iba1 (1:2,000, AbCam, ab5076), GFAP (Abcam, ab53554), phospho- tau (1:1,000, Thermo, MN1020) and amyloid β (1:1,000, AbCam, ab201060) diluted in PBS with 10% DNS were incubated at 4°C overnight. The next day, the slices were washed x3 times in PBS, and secondary antibodies including donkey anti goat A l e x a Fluor 568 (AbCam, ab175704), donkey anti-mouse Cy 5 (Jackson Immuno Research, 715- 175- 151) and donkey anti-rabbit DyLight 488 (AbCam, ab98488) all diluted 1:500 in PBS with 1% BSA, were applied to the slices at RT for 2 h. Following the incubation, the slices were washed x3 times in PBS, mounted onto gl ass slides, were uniformly covered in DAPI containing Vectashield (H-1200) and coverslips were a dde d. […]
structure (smiles),measurement,setting,value
Cc1ccc(-c2cn3cccc(C)c3n2)cc1S(=O)(=O)N1CCNCC1 [YB-537],4-HNE distribution (F test),Females,significantly changes distribution
same,4-HNE lower quartile,Females,0.0409
same,4-HNE normalized volume (individual mice),Females,0.0514 and 0.0389 and 0.0542 and 0.0413 and 0.0409 and 0.0433 and 0.0449
same,4-HNE upper quartile,Females,0.0514
same,4-HNE normalized volume (individual mice),Males,0.0457 and 0.0892 and 0.0543 and 0.0490 and 0.0489 and 0.0313 and 0.0587 and 0.0539 and 0.0508
same,4-HNE normalized volume (individual mice),Males + Females,0.0514 and 0.0389 and 0.0542 and 0.0313 and 0.0587 and 0.0539 and 0.0508 and 0.0457 and 0.0892 and 0.0543 and 0.0490 and 0.0489 and 0.0413 and 0.0409 and 0.0433 and 0.0449
same,4-HNE lower quartile,both sexes,0.0418
same,4-HNE upper quartile,both sexes,0.0541
same,4-HNE distribution (F test),total population,tends to alter distribution
same,"Figure 9A, IHC signal",Cortex,0.0148 and 0.0125 and 0.0103 and 0.0159 and 0.0128 and 0.0161 and 0.0104 and 0.0145 and 0.0118
same,"Sup. Fig. 6-1A, IHC signal",Females,0.0214 and 0.0277 and 0.0236 and 0.0333 and 0.0429 and 0.0318 and 0.0155
same,"Figure 9A, IHC signal",Hippocampus,0.0222 and 0.0139 and 0.0101 and 0.0187 and 0.0170 and 0.0160 and 0.0186 and 0.0121 and 0.0197
same,"Sup. Fig. 6-1A, IHC signal",Males + Females,0.0231 and 0.0112 and 0.0400 and 0.0392 and 0.0271 and 0.0198 and 0.0429 and 0.0318 and 0.0155 and 0.0214 and 0.0277 and 0.0236 and 0.0333 and 0.0301 and 0.0174 and 0.0275
same,"Sup. Fig. 6-1A, IHC signal",Males,0.0231 and 0.0112 and 0.0400 and 0.0392 and 0.0271 and 0.0198 and 0.0301 and 0.0174 and 0.0275
same,4-HNE vs vehicle,females,not significantly altered
same,4-HNE vs vehicle,males,not significantly altered
same,4-HNE vs vehicle,total population,not significantly altered
